Data: patent US20250170050A1, “Use of Nordic plant-based ingredients for supporting a healthy skin microbiome” (Lumene Oy, priority 2022, published 2025)

Test system: Cutibacterium acnes
Test: In vitro growth of C. acnes by OD at 600 nm in kinetic for 49 hours, anaerobic
Assay type: cell-based
Conditions: oat xylitol alone
Procedure: In the present study, the effects of 4 compounds and 5 combinations were evaluated on the growth of two bacterial strains: Staphylococcus epidermidis (S. epidermidis) and Cutibacterium acnes (C. acnes). The bacterial strains were grown individually, and the growth of each bacterial strain was determined in presence of the compounds or combinations by optical density (OD) measurement at 600 nm in kinetic for 24 hours for S. epidermidis strain and for 49 hours for C. acnes strain to determine a bacterial growth curve. To determine the effect of the test compounds and combinations on the growth of bacteria, bacterial suspensions were transferred in a 96-well plate containing the compounds, the combinations or glucose tested at 0.1% and 1%. Bacterial cultures were incubated at 37° C. under agitation and under anaerobic condition for C. acnes strain. All experimental conditions were performed in n=3. Optical densities at 600 nm (OD600 nm) were then read in kinetic for 24 hours for S. epidermidis strain and 49 hours for C. acnes strain using a microplate spectrophotometer (EPOCH2, BioTek Instruments). Raw data were analysed using GraphPad PRISM software (growth curves).

## OC[C@@H](O)[C@H](O)[C@@H](O)CO [Xylitol]
  growth of C. acnes: inhibits
